This note sets out measurements from US20250092044A1, “Kinase Inhibitors” (Incyte Corporation, priority 2023, published 2025).

Where only a bound is given, the exact number is not on record here.

Test [1] concerns the target pseudo-kinase domain (JH2) of human V617F mutant JAK2 (Homo sapiens (Human), UniProt O60674, F794H/V617F/W659A/W777A). As to the kind of experiment: JAK2 LanthaScreen JH2-V617F Binding Assay. As to conditions: read-out: JH2 V617F Bind IC50. The method, then: JAK2 JH2-V617F binding assay utilizes pseudo-kinase domain (JH2, amino-acids 536-812 with 3 surface mutations W659A, W777A, F794H) of human V617F mutant JAK2 expressed as C-terminal His-Avi-tagged, biotinylated protein in a baculovirus expression system (BPS Bioscience, Catalog #79498). The assay was conducted in black 384-well polystyrene plates in a final reaction volume of 20 μL. JAK2 JH2-V617F (0.26 nM) was incubated with compounds (100 nL serially diluted in DMSO) in the presence of 50 nM Fluorescent JAK2-JH2 Tracer (MedChem Express Catalog #HY-102055) and 0.25 nM Streptavidin-Tb cryptate (Cisbio Part #610SATLB) in assay buffer (50 mM Tris, pH=7.5, 10 mM MgCl2, 0.01% Brij-35, 0.1% BSA, 1 mM EGTA, 5% Glycerol and 5 mM DTT). Non-specific binding was accessed in the presence of 2 mM ATP. After incubation for 1 hour at 25° C., LanthaScreen signals were read on a PHERAstar FS plate reader (BMG LABTECH). Data was analyzed with IDBS XLfit and GraphPad Prism 5.0 software using a four parameter dose response curve to determine IC50 for each compound.

The target in test [2] is catalytic domain (JH1) of human JAK2 (Homo sapiens (Human), UniProt O60674). As to the kind of experiment: JAK2 LanthaScreen JH1 Binding Assay. As to conditions: read-out: JH1 Bind IC50. As to the method:
JAK2 JH1 binding assay utilizes catalytic domain (JH1, amino acids 826-1132) of human JAK2 expressed as N-terminal FLAG-tagged, biotinylated protein in a baculovirus expression system (Carna Biosciences, Product #08-445-20N). The assay was conducted in black 384-well polystyrene plates in a final reaction volume of 20 μL. JAK2 JH1 (1.5 nM) was incubated with compounds (100 nL serially diluted in DMSO) in the presence of 50 nM fluorescent JAK2-JH1 tracer and 0.5 nM Streptavidin-Tb cryptate (Cisbio Part #610SATLB) in assay buffer (50 mM Tris, pH=7.5, 10 mM MgCl2, 0.01% Brij-35, 0.1% BSA, 1 mM EGTA, 5% Glycerol and 5 mM DTT). Non-specific binding was accessed in the presence of 2 mM ATP. After incubation for 2 hours at 25° C., LanthaScreen signals were read on a PHERAstar FS plate reader (BMG LABTECH). Data was analyzed with IDBS XLfit and GraphPad Prism 5.0 software using a four parameter dose response curve to determine IC50 for each compound.
(In TR-FRET formats the signal depends on donor and acceptor labels being close together.)

The target in test [3] is FLT3 (Homo sapiens (Human), UniProt P36888). Briefly: FLT3 Enzymatic Assay. The class given is biochemical. As to conditions: 1 mM ATP. The method, then:
(§1) The kinase assays were carried out at room temperature in assay buffer (HEPES 50 mM, pH 7.0, NaN3 0.02%, BSA 0.01%, Orthovanadate 0.1 mM, DTT 1 mM, MgCl2 10 mM) in a final volume of 10 μL. Testing compounds were prepared by serial dilution in DMSO and transferred to the plate wells by ECHO liquid handler (Labcyte) with 0.5% DMSO in the final assay. […]. Reactions were initiated by the addition of 5 μL ATP in assay buffer. The final 10 μL kinase reaction consists of 0.011 nM FLT3, 1 mM ATP, 500 nM TK Substrate-biotin and SEB reagent 62.5 nM in assay buffer. […] The plates were then sealed and centrifuged at 1800 rpm for 2 minutes. After 60 minutes incubation at room temperature, the product activity was determined by measuring the fluorescence at 620 nm and 665 nm on Pherastar microplate reader (BMG Labtech). A ratio is calculated (665/620 nm) for each well. Wells with DMSO only were served as the positive controls and wells containing no ATP were used as negative controls. IC50 determination was performed by fitting the curve of percent control activity versus the log of the compound concentration using the GraphPad Prism 7.0 software.

Test [4] relates to FLT3. As to the kind of experiment: FLT3 Enzymatic Assay. The class given is biochemical. The method, then: as §1
For test [5], the target named is TRKA (Homo sapiens (Human), UniProt P04629). As to the kind of experiment: TRKA Enzymatic Assay. It is filed as biochemical. As to conditions: 1 mM ATP. The method, then:
(§2) The kinase assays were carried out at 24° C. temperature in assay buffer (HEPES 50 mM, pH 7.0, NaN3 0.02%, BSA 0.01%, Orthovanadate 0.1 mM, DTT 1 mM, MgCl2 10 mM) in a final volume of 10 μL. Testing compounds were prepared by serial dilution in DMSO and transferred to the plate wells by ECHO liquid handler (Labcyte) with 0.5% DMSO in the final assay. […]. Reactions were initiated by the addition of 5 μL ATP in assay buffer. The final 10 μL kinase reaction consisted of 0.58 nM TRKA, 1 mM ATP, 500 nM TK Substrate-biotin and SEB reagent 62.5 nM in assay buffer. […] After 60 minutes incubation at room temperature, the product activity was determined by measuring the fluorescence at 620 nm and 665 nm on Pherastar microplate reader (BMG Labtech). A ratio was calculated (665/620 nm) for each well. Wells with DMSO only served as the positive controls and wells containing no ATP were used as negative controls. IC50 determination was performed by fitting the curve of percent control activity versus the log of the compound concentration using the Gene data.

Test [6] has as its system TRKA. Briefly: TRKA Enzymatic Assay. The class given is biochemical. As to the method:
as §2

Test [7] deals with STAT5 (Tyr694) phosphorylation in SET-2 cells. As to the kind of experiment: STAT5 (Tyr694) Phosphorylation Cell Based Assay. As to conditions: Homo sapiens, 2 hours, read-out: SET2 IC50. The method, then:
SET-2 cells was purchased from DSMZ (Germany). RPMI1640 medium, Fetal Bovine Serum and 384-white sold flat-bottom small volume plate were purchased from Thermo Fisher Scientific (Waltham, MA). Phospho-STAT5 (Tyr694) HTRF kit was purchased from Perkin Elmer (Waltham, MA).
SET-2 cells were cultured in RPMI media with 20% FBS at 37° C. in humidified incubator supplied with 5% CO2. On the day of assay, the cells were centrifuged to remove the culture media and resuspended with prewarmed RPMI with 10% FBS. Testing compounds were prepared by serial dilution in DMSO and 50 nL/well test compounds were transferred to the 384 white low volume cell culture plate (Greiner Bio-one) by ECHO liquid handler (Labcyte). The cells were then dispensed with Multidrop (Thermo Fisher, Waltham, MA) at 10 μL/well (7×10^6 cells/mL) with 0.5% DMSO in the final assay. After the treated cells were incubated for 2 hours at 37° C./5% CO2 incubator, 4 μL/well supplemented lysis buffer (100× blocking buffer diluted 25 fold in 4× lysis buffer, Perkin Elmer) were added and incubated at room temperature for 90 min on orbital shaker at 600 rpm. Phospho-STAT5 Cryptate antibody and Phospho-STAT5 d2 antibody (1:1 vol/vol) were premixed and diluted 20 fold with in the detection buffer (Perkin Elmer). 4 μL of the premixed antibody solution were added to each well followed with 24 hours incubation at room temperature on orbital shaker at 600 rpm. The product activity was determined by measuring the fluorescence at 620 nm and 665 nm on Pherastar microplate reader (BMG Labtech). A ratio is calculated (665/620) for each well. Wells with DMSO only served as the positive controls and wells containing high concentration of control compound were used as negative controls. IC50 determination was performed by fitting the curve of percent control activity versus the log of the compound concentration using the GraphPad Prism 7.0 software.

Chain of catalytic domain (JH1) of human JAK2 (O60674 826-1132): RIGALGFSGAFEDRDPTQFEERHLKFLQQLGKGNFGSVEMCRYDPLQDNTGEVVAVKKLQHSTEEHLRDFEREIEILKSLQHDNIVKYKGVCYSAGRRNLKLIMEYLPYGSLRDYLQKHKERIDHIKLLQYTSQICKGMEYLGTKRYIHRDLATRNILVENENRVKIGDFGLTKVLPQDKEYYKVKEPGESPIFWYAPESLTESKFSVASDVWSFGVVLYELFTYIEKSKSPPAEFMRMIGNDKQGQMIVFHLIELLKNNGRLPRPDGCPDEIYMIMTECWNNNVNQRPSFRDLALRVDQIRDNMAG
Chain of pseudo-kinase domain (JH2) of human V617F mutant JAK2 (O60674 536-812 V617F/W659A/W777A/F794H): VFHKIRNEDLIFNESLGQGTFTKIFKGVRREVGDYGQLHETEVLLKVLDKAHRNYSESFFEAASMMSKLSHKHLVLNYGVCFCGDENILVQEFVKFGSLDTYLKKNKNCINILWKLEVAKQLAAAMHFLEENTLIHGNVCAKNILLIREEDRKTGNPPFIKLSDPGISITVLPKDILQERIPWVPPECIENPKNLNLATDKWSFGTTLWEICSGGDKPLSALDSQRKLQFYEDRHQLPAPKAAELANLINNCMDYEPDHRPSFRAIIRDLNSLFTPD
Chain of TRKA (Homo sapiens (Human), UniProt P04629) (P04629 33-796, species assumed): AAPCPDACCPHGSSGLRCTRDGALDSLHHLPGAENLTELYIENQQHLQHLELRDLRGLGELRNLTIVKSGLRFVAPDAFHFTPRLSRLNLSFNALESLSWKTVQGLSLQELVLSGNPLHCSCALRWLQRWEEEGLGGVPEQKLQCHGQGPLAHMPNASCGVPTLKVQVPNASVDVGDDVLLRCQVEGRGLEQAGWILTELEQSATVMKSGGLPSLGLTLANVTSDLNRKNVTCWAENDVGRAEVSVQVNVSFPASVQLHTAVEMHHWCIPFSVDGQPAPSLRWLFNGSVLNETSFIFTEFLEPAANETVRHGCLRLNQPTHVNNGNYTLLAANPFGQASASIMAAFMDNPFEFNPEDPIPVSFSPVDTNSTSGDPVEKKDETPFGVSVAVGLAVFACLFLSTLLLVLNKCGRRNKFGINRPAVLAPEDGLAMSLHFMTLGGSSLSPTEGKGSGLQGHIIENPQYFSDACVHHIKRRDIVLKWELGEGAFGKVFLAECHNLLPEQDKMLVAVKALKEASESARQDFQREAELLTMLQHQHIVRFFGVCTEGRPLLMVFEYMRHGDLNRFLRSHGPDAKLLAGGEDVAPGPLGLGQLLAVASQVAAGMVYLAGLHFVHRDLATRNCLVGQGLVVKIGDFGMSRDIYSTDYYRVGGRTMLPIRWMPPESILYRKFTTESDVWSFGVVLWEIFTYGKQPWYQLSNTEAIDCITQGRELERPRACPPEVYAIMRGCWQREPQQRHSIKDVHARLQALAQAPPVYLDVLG
Chain of FLT3 (Homo sapiens (Human), UniProt P36888) (P36888 27-993, species assumed): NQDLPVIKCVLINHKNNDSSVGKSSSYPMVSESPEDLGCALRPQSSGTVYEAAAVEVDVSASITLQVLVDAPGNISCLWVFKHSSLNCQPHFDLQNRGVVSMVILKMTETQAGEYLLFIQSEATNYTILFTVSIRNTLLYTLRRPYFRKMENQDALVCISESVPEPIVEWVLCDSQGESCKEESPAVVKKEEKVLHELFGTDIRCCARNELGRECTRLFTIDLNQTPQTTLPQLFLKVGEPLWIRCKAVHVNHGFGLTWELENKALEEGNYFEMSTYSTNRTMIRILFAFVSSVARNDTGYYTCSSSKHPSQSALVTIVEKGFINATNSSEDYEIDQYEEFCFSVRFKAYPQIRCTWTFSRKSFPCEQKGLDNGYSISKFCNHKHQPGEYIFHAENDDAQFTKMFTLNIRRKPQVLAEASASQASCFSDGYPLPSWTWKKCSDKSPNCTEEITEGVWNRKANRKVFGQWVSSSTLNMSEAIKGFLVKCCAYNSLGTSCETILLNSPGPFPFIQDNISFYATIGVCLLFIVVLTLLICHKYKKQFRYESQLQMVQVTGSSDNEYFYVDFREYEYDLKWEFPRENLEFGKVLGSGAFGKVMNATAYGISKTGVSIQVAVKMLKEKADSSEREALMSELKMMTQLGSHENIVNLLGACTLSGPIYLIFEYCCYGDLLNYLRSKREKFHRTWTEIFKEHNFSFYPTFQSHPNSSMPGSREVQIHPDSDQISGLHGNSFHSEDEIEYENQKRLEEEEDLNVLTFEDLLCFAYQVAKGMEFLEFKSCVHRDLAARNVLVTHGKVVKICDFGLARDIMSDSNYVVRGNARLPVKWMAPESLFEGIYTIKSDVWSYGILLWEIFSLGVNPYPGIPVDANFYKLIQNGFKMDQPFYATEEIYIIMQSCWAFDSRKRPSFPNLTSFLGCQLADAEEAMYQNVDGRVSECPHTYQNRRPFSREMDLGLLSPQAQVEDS

Consider `COC(=O)N[C@@H]1CC[C@@H](n2c(=O)n(C)c3cnc4[nH]c(-c5ccc(C(=O)N6C7CCC6COC7)c(OC)c5)c(-c5cccc(F)c5)c4c32)C1` [Example 5, Methyl ((1R,3R)-3-(7-(4-(3-oxa-8-azabicyclo[3.2.1]octane-8-carbonyl)-3-methoxyphenyl)-8-(3-fluorophenyl)-3-methyl-2-oxo-3,6-dihydroimidazo[4,5-d]pyrrolo[2,3-b]pyridin-1(2H)-yl)cyclopentyl)carbamate], for which the IC50 (usually the concentration needed to halve the response being measured) in test [1] was at most 10 nM; in test [2], over 1000 nM; in test [3] it was 1250 to 2500 nM; in test [5], 250 to 1250 nM; in test [7] it was over 800 nM. Also, in test [4], the “Selectivity FLT3/JH2 V617F” value was “***** (selectivity of >5000-fold to ≤12500-fold)”. The “Selectivity TRKA/JH2 V617F” value in test [6] is “** (selectivity of >500-fold to ≤1500-fold)”.

In the case of `COC(=O)N[C@@H]1CC[C@@H](n2c(=O)n(C)c3cnc4[nH]c(-c5ccc(C(=O)NCCCNc6ccccc6)c(F)c5)c(-c5ccc6c(cnn6C(C)C)c5)c4c32)C1` [Example 7, Methyl ((1R,3R)-3-(7-(3-fluoro-4-((3-(phenylamino)propyl)carbamoyl)phenyl)-8-(1-isopropyl-1H-indazol-5-yl)-3-methyl-2-oxo-3,6-dihydroimidazo[4,5-d]pyrrolo[2,3-b]pyridin-1(2H)-yl)cyclopentyl)carbamate], the IC50 in test [1] is at most 10 nM; in test [2] it was over 1000 nM; in test [3] it was over 2500 nM; in test [5] it was over 2500 nM; in test [7], over 800 nM. Further, the “Selectivity FLT3/JH2 V617F” value in test [4] was “***** (selectivity of >5000-fold to ≤12500-fold)”. The “Selectivity TRKA/JH2 V617F” value in test [6] is recorded as “***** (selectivity of >5000-fold to ≤12500-fold)”.

With `CCNC(=O)c1ccc(-c2[nH]c3ncc4c(c3c2-c2ccc3c(cnn3C(C)C)c2)n([C@@H]2CC[C@@H](NC(=O)OC)C2)c(=O)n4C)cc1OC` [Example 18, Methyl ((1R,3R)-3-(7-(4-(ethylcarbamoyl)-3-methoxyphenyl)-8-(1-isopropyl-1H-indazol-5-yl)-3-methyl-2-oxo-3,6-dihydroimidazo[4,5-d]pyrrolo[2,3-b]pyridin-1(2H)-yl)cyclopentyl)carbamate], the IC50 is at most 10 nM in test [1]; over 1000 nM in test [2]; 250 to 1250 nM in test [3]; 1250 to 2500 nM in test [5]; at most 300 nM in test [7]. For the same compound, the “Selectivity FLT3/JH2 V617F” value in test [4] is given as “**** (selectivity of >1750-fold to ≤5000-fold)”. Also, the “Selectivity TRKA/JH2 V617F” value in test [6] is “***** (selectivity of >5000-fold to ≤12500-fold)”.

On to `COCCNC(=O)c1ccc(-c2[nH]c3ncc4c(c3c2-c2ccc3c(cnn3C(C)C)c2)n([C@@H]2CC[C@@H](NC(=O)OC)C2)c(=O)n4C)cc1` [Example 19, Methyl ((1R,3R)-3-(8-(1-isopropyl-1H-indazol-5-yl)-7-(4-((2-methoxyethyl)carbamoyl)phenyl)-3-methyl-2-oxo-3,6-dihydroimidazo[4,5-d]pyrrolo[2,3-b]pyridin-1(2H)-yl)cyclopentyl)carbamate], for which the IC50 in test [1] was at most 10 nM; in test [2], over 1000 nM; in test [3] it was 250 to 1250 nM; in test [5], 1250 to 2500 nM; in test [7], at most 300 nM. Also, in test [4], the “Selectivity FLT3/JH2 V617F” value is given as “**** (selectivity of >1750-fold to ≤5000-fold)”. In addition, the “Selectivity TRKA/JH2 V617F” value in test [6] is on record as “****** (selectivity of >12500-fold)”.

For `COC(=O)N[C@@H]1CC[C@@H](n2c(=O)n(C)c3cnc4[nH]c(-c5ccc(C(=O)N6CCOCC6)cc5)c(-c5ccc6c(cnn6C(C)C)c5)c4c32)C1` [Example 20, Methyl ((1R,3R)-3-(8-(1-isopropyl-1H-indazol-5-yl)-3-methyl-7-(4-(morpholine-4-carbonyl)phenyl)-2-oxo-3,6-dihydroimidazo[4,5-d]pyrrolo[2,3-b]pyridin-1(2H)-yl)cyclopentyl)carbamate], the IC50 is at most 10 nM in test [1]; over 1000 nM in test [2]; 250 to 1250 nM in test [3]; 250 to 1250 nM in test [5]; at most 300 nM in test [7]. Besides, in test [4], the “Selectivity FLT3/JH2 V617F” value is “***** (selectivity of >5000-fold to ≤12500-fold)”. Besides, the “Selectivity TRKA/JH2 V617F” value in test [6] is “***** (selectivity of >5000-fold to ≤12500-fold)”.

For the compound `COC(=O)N[C@@H]1CC[C@@H](n2c(=O)n(C)c3cnc4[nH]c(-c5ccc(C(=O)N(C)C)cc5)c(-c5ccc6c(cnn6C(C)C)c5)c4c32)C1` [Example 22, Methyl ((1R,3R)-3-(7-(4-(dimethylcarbamoyl)phenyl)-8-(1-isopropyl-1H-indazol-5-yl)-3-methyl-2-oxo-3,6-dihydroimidazo[4,5-d]pyrrolo[2,3-b]pyridin-1(2H)-yl)cyclopentyl)carbamate], the IC50 was at most 10 nM in test [1]; over 1000 nM in test [2]; 250 to 1250 nM in test [3]; 250 to 1250 nM in test [5]; at most 300 nM in test [7]. The “Selectivity FLT3/JH2 V617F” value in test [4] is reported as “***** (selectivity of >5000-fold to ≤12500-fold)”. Besides, the “Selectivity TRKA/JH2 V617F” value in test [6] is reported as “***** (selectivity of >5000-fold to ≤12500-fold)”.
